Measurements reported in publication PMC12406256, “Food Additives Inhibit Intestinal Drug Transporters but Have Limited Effect on In Vitro Drug Permeability” (Molecular Pharmaceutics, 2025).
Where “and” joins values, the source holds several entries; their conditions need not be identical. Identical values can stand only once. Entries after “also recorded” stand apart in the source; their conditions may differ. Like-named read-outs stand apart in the source and are kept apart here. One block for each compound: values may come before it.

Columns and labels:
Caco-2 cells = experiment: in vitro
Procedure: Caco-2 cells were cultured on 12-well Transwell polycarbonate membrane inserts with a 0.4 μm pore size (Corning Incorporated, Kennebunk, ME) at 37 °C and 5% CO2 for 21–24 days prior to the experiment as described in Hubatsch et al. The culture medium (DMEM, 10% FBS, 1% MEM nonessential amino acids, 100 U/mL penicillin–streptomycin) was changed every second day. Transepithelial electrical resistance (TEER) was measured before and after the permeability assay with a Millicell-ERS electrode (Millipore, Bedford, MA) attached to an epithelial volt ohm meter (EVOM, World Precision Instruments, Sarasota, FL). The permeability assay was performed according to a previously published protocol. […] Sulfasalazine is a substrate of BCRP and OATP2B1. , The DMSO concentration was 0.45–1.5%. Before the experiment, inserts were washed and preincubated in the transport buffer for 20 min shaking at 37 °C. Sulfasalazine and LY permeability was measured in the apical to basolateral direction at five time points (20, 40, 60, 90, and 120 min) and, additionally, in the basolateral to apical direction to calculate the efflux ratio. […] […] LY (250 μM) was added on the donor side of all inserts to measure the integrity of the cell monolayer. Before analysis, samples were centrifuged at 2755g for 30 min, and donor solution and mass balance samples were diluted 1:100. LY fluorescence was measured with a Varioskan LUX microplate reader (Thermo Fisher Scientific) at 430 nm excitation and 538 nm emission. Sulfasalazine was analyzed with ultra-performance liquid chromatography (UPLC) using a Syncronis C18 column (1.7 μm particle size, 50 × 2.1 mm + 0.2 μm Waters online filter) (Thermo Fisher Scientific) coupled with Waters Acquity UPLC interfaced with a PDA detector both controlled by the Waters Empower software version 3. The UPLC was operated in gradient mode at 354 nm. Solvents were 0.015 M phosphate buffer pH 2 (A), acetonitrile (B), 1:1 acetonitrile/methanol (strong needle wash), and 20% acetonitrile (weak needle wash). Column temperature was 30 °C, injection volume was 10 μL, retention time was 1.46 min, and flow rate was 0.5 mL/min. The gradient was 25% B → 70% B (0–3 min), 70% B → 25% B (3.00–3.01 min), and 25% B (3.01–4 min). The data were collected for the first 180 s of each UPLC run.
In the Caco-2 permeability assay, the apparent permeability (P app) of sulfasalazine was calculated using the following equation: Papp=(dQ/dt)(1/A×C0) where dQ/dt is the rate of permeation across the cells (nmol/min), A is the surface area of the filter (1.12 cm^2), and C 0 is the initial concentration in the donor chamber (μM). The efflux ratio of sulfasalazine was calculated by dividing the P app in the basolateral to the apical direction by the P app in the apical to basolateral direction. The TEER for each cell insert was calculated before and after the experiment by multiplying the mean resistance of three measurements by the surface area of the filter (1.12 cm^2). Mass balance was calculated by dividing the […]. All experiments were done in triplicate wells, and the IC50 and Caco-2 permeability assays were repeated three times.

P-gp [1] = molecular target: T1, P-gp (Homo sapiens, UniProt P08183); experiment: Vesicular transport assay, P-gp (N-methyl-quinidine substrate); settings: food additive 50 μM; N-methyl-quinidine 2 μM; n = 1
T1 sequence (P08183 whole entry): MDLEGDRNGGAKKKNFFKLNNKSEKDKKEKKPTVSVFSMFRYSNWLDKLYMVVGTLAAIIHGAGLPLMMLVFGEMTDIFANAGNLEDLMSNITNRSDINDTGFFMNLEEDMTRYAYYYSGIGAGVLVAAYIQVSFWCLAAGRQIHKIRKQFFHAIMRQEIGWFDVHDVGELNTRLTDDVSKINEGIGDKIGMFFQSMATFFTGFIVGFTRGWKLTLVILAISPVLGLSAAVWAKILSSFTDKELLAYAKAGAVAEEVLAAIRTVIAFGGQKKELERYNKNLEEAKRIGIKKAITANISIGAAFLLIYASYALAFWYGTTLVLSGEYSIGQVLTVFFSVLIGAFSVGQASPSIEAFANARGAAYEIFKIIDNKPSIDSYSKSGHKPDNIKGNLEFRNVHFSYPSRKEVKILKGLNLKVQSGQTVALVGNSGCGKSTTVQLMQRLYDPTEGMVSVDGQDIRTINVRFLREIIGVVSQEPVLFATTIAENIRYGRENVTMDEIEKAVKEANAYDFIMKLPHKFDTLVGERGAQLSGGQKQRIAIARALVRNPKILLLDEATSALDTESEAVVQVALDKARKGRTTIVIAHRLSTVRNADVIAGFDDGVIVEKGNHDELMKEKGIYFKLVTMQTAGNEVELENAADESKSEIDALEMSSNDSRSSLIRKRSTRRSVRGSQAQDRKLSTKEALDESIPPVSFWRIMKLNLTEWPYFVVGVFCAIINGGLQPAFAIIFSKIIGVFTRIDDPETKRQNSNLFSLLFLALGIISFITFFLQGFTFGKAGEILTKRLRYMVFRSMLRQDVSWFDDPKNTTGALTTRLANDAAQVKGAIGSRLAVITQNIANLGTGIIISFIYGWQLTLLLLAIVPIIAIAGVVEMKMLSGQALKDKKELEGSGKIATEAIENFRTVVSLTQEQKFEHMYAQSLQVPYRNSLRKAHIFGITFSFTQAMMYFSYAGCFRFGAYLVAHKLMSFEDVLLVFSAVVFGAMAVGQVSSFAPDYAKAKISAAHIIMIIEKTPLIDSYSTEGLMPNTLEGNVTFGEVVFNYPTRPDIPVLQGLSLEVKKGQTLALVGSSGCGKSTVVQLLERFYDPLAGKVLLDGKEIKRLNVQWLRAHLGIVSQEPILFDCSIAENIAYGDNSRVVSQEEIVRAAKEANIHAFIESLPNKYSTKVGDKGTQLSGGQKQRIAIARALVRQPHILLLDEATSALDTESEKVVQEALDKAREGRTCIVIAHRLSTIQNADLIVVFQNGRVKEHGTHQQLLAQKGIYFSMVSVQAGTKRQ
Procedure: (§1) Transport inhibition by 22 food additives was tested with Spodoptera frugiperda (Sf9) derived crude membrane vesicles expressing BCRP, MRP2, or P-gp produced in-house. […] Vesicles (50 μg total protein/well) were diluted in an assay buffer (40 mM MOPS–Tris pH 7.0, 60 mM KCl, and 6 mM MgCl2) with the substrate, and food additives (final concentration of 50 μM) in DMSO were added to the mixture. After preincubation, either the assay buffer or Mg-ATP solution (final concentration 4 mM) was added to the plate to start the reaction. The plate was incubated at 37 °C, and the reaction was stopped with an ice-cold washing mixture (40 mM MOPS-Tris pH 7.0 and 70 mM KCl). Samples were moved to a MultiScreenHTS-FB Plate Glass fiber 1.0 μm/0.65 μm Durapore filter plate (Millipore, USA), and the wells were washed five times with the ice-cold washing mixture. For BCRP and MRP2, the fluorescent substrate was eluted from the filters with 100 μL 0.1 M NaOH. For LY samples, an equal volume of 0.1 M HCl was added to neutralize the samples before fluorescence measurement. The amount of the substrate accumulated into the vesicles was measured by fluorescent detection using a Varioskan LUX microplate reader (Thermo Fisher Scientific, Finland) (Table ). The accumulation into the P-gp vesicles was measured with high-performance liquid chromatography (HPLC) (Agilent 110 series, Agilent Technologies, USA) after lysis and elution of the vesicle contents with 100 μL 3:1 methanol/water + 0.1% formic acid. The column used was a Poroshell 120 EC-C18 with a size of 4.6 × 100 mm and 2.7 μm particle size. Eluent A was 0.1% formic acid, and eluent B was acetonitrile. The flow rate of eluent was 1 mL/min, and the injection volume of samples was 10 μL. […] The retention time for NMQ was around 2.5 min.
(§2) For the efflux transporters, the relative transport was calculated as relativetransport(%ofcontrol)=transportinh,ATP−transportinh,noATP/transportDMSO,ATP−transportDMSO,noATP×100% where transportinh,ATP and transportinh,no ATP are the transport rates in the presence of food additives with or without ATP, respectively, and transportDMSO,ATP and transportDMSO,no ATP are the corresponding transport rates in the presence of the vehicle (DMSO) with or without ATP.
(§3) The half-maximal inhibitory concentrations (IC50) were calculated with GraphPad Prism version 9.0.2 (GraphPad Software, San Diego, CA) using nonlinear regression that fits the data to a four-parameter dose–response curve: relativetransport=minimum+maximum−minimum/1+([I]/IC50)^h where minimum and maximum describe the plateaus of minimal and maximal relative transport (%), [I] is the concentration of inhibitor, and h is the Hill slope, which describes the steepness of the slope.

BCRP [2] = molecular target: T2, BCRP (Homo sapiens, UniProt Q9UNQ0); experiment: Vesicular transport assay, BCRP (Lucifer yellow substrate); assay type: biochemical; parameters: made in house; host or cells: Spodoptera frugiperda Sf9 cells, crude membrane vesicles; settings: for inhibition of BCRP substrate accumulation: n = 1
T2 sequence (Q9UNQ0 1-655): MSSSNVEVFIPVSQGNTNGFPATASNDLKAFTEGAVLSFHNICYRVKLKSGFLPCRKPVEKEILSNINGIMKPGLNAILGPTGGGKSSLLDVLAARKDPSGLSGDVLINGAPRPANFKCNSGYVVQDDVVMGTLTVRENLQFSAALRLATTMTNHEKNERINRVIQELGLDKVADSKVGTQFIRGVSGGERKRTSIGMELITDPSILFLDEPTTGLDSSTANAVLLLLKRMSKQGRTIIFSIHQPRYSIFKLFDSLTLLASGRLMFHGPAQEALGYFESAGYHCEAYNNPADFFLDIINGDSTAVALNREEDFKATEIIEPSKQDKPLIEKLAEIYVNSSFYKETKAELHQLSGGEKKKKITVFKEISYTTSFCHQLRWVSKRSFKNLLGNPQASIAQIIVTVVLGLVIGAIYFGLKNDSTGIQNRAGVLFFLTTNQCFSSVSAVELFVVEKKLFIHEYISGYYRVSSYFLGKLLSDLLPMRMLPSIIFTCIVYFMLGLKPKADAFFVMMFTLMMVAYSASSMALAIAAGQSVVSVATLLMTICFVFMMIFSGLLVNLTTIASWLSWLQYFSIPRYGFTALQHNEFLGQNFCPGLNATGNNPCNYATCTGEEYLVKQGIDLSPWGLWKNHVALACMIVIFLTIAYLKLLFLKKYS
Procedure: as §1, §2, §3

OATP2B1 [3] = molecular target: T3, OATP2B1 (Homo sapiens, UniProt O94956); experiment: HEK293 uptake assay, OATP2B1 (5-carboxyfluorescein substrate); assay type: cell-based; settings: food additive 50 μM; 5-carboxyfluorescein 2 μM; HEK293 cells; n = 1
T3 construct: expressed in transfected cells; host or cells: HEK293 cells (ATCC) transduced with recombinant OATP2B1 baculovirus
T3 sequence (O94956 1-709): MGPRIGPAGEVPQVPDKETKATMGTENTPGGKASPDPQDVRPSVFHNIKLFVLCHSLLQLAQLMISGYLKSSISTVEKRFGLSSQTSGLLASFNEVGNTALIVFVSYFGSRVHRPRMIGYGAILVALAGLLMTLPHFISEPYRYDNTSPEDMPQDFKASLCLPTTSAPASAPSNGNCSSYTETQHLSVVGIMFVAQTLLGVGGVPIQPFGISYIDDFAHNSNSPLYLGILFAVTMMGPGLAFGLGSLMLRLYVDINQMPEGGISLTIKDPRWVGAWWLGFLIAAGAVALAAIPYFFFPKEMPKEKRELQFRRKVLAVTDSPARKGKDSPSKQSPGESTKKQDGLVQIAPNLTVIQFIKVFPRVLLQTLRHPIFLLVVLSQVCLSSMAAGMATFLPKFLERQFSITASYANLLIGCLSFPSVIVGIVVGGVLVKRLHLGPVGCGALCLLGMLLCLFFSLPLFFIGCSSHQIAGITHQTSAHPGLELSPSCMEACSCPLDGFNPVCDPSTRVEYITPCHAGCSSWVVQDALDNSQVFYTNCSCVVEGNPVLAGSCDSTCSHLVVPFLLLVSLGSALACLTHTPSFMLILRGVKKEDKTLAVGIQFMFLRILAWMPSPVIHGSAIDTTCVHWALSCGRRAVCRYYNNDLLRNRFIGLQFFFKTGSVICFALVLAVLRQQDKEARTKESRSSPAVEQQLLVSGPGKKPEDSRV
Procedure: The inhibition of OATP2B1 was studied using a HEK293 cell-based uptake assay. HEK293 cells were cultured in DMEM supplemented with 10% FBS at 37 °C and 5% CO2 and seeded at 22,500 cells/well on 96-well plates coated with 0.1 mg/mL poly-D-lysine. After 24 h, the medium was replaced with a transduction mix (DMEM with 10% FBS, 5 mM sodium butyrate, and recombinant OATP2B1 or enhanced yellow fluorescent protein [eYFP, negative control] baculoviruses). The baculoviruses were produced as previously described. The uptake assay was performed after approximately 48 h. […] Test solutions also contained the substrate. Cells were washed with warm transport buffer and preincubated at 37 °C. Preincubation solutions were replaced with test solutions and incubated at 37 °C with shaking at 250 rpm. Transport was terminated by aspirating the test solution and washing the wells with an ice-cold transport buffer (150 μL) three times. Wells were left to dry, and cells were lysed with 0.1 M NaOH. […] Total protein concentration was measured from six random wells with a Pierce Coomassie (Bradford) Assay kit (Thermo Fisher Scientific) to ensure a similar protein concentration in the OATP2B1 and eYFP wells.

P-gp [4] = molecular target: T1, P-gp; parameters: made in house; host or cells: Spodoptera frugiperda Sf9 cells, crude membrane vesicles; settings: ref Kulkarni et al.; cited from earlier work
BCRP [5] = molecular target: T2, BCRP; settings: cited from earlier work
OATP2B1 [6] = molecular target: T3, OATP2B1; settings: cited from earlier work
MRP2 = molecular target: T4, MRP2 (Homo sapiens, UniProt Q92887); experiment: Vesicular transport assay, MRP2 (CDCF substrate); assay type: biochemical
T4 construct: made in house; host or cells: Spodoptera frugiperda Sf9 cells, crude membrane vesicles
T4 sequence (Q92887 whole entry): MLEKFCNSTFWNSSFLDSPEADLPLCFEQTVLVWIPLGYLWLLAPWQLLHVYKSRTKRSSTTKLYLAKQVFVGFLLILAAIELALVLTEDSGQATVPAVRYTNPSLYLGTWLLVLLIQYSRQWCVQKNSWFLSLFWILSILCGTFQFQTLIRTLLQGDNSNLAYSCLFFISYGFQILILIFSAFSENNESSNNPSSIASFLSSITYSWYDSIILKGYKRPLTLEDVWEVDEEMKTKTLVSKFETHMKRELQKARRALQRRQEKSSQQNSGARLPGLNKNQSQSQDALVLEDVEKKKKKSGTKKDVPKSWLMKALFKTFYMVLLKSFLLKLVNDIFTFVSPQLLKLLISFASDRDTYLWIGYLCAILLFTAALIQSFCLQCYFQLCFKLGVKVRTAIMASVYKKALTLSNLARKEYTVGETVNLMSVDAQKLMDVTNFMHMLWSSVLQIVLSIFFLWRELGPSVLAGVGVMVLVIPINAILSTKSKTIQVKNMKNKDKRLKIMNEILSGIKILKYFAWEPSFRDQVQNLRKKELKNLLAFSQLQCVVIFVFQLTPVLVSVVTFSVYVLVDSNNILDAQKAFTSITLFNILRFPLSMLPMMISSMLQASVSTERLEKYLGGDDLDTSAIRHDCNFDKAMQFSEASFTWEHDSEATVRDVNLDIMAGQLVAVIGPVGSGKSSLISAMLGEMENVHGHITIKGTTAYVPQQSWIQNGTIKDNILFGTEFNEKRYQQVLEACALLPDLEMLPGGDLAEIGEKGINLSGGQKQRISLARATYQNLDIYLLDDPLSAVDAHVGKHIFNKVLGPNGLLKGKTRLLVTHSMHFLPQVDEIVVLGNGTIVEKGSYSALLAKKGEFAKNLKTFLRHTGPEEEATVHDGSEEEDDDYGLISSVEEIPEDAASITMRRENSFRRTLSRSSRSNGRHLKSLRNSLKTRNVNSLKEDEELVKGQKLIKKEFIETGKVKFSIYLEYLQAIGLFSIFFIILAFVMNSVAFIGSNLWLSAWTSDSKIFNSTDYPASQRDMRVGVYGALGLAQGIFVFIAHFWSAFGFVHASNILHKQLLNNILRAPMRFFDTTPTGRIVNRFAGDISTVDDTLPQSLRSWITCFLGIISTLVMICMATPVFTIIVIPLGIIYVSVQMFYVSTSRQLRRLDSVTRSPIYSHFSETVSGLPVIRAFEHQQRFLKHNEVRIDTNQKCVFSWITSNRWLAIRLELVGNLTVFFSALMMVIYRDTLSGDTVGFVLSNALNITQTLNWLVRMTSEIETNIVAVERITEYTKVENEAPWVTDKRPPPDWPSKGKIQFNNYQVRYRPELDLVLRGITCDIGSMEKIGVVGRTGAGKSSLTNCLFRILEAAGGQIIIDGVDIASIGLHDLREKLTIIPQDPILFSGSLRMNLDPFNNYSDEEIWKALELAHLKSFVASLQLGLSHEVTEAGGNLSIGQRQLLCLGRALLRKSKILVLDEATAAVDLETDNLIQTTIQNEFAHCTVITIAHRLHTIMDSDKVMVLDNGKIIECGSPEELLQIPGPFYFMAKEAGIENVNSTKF
Procedure: Transport inhibition by 22 food additives was tested with Spodoptera frugiperda (Sf9) derived crude membrane vesicles expressing BCRP, MRP2, or P-gp produced in-house. […] Vesicles (50 μg total protein/well) were diluted in an assay buffer (40 mM MOPS–Tris pH 7.0, 60 mM KCl, and 6 mM MgCl2) with the substrate, and food additives (final concentration of 50 μM) in DMSO were added to the mixture. After preincubation, either the assay buffer or Mg-ATP solution (final concentration 4 mM) was added to the plate to start the reaction. The plate was incubated at 37 °C, and the reaction was stopped with an ice-cold washing mixture (40 mM MOPS-Tris pH 7.0 and 70 mM KCl). Samples were moved to a MultiScreenHTS-FB Plate Glass fiber 1.0 μm/0.65 μm Durapore filter plate (Millipore, USA), and the wells were washed five times with the ice-cold washing mixture. For BCRP and MRP2, the fluorescent substrate was eluted from the filters with 100 μL 0.1 M NaOH. […] The amount of the substrate accumulated into the vesicles was measured by fluorescent detection using a Varioskan LUX microplate reader (Thermo Fisher Scientific, Finland) (Table ).
as §2, §3

[7] = food additive 50 μM, Lucifer yellow 50 μM

Compound: COc1ccc2c3c([nH]c2c1)[C@H](CC(C)C)N1C(=O)[C@H](CCC(=O)OC(C)(C)C)NC(=O)[C@@H]1C3 [Ko-143, reference compound]
apical to basolateral P app of sulfasalazine with control inhibitor (Caco-2 cells; Ko-143 10 μM on apical and basolateral sides, sulfasalazine 500 μM): ~0.6 × 10^–6 cm/s

Compound: O=C1O[C@H]([C@@H](O)CO)C(O)=C1O [ascorbic acid]
inhibition of P-gp substrate accumulation (P-gp [1]): None

Compound: CC1=C(/C=C/C(C)=C/C=C/C(C)=C/C=C/C=C(C)/C=C/C=C(\C)C=O)C(C)(C)CCC1 [beta-apo-8’-carotenal]
inhibition of P-gp substrate accumulation (P-gp [1]): did not inhibit these transporters as markedly as beta-carotene | inhibition of BCRP substrate accumulation (BCRP [2]; [7]): did not inhibit these transporters as markedly as beta-carotene | inhibition of OATP2B1-mediated uptake (OATP2B1 [3]): did not inhibit these transporters as markedly as beta-carotene

Compound: COc1ccc(O)c(C(C)(C)C)c1 [butylated hydroxyanisole]
IC50 (P-gp [4]): > 50 µM | P-gp inhibition (P-gp [4]): significant inhibitor | IC50 (BCRP [5]; read-out: IC50, BCRP, ref Kulkarni et al.): > 50 µM | BCRP inhibition (BCRP [5]; ref Kulkarni et al.): significant inhibitor | inhibition of P-gp substrate accumulation (P-gp [1]): ≤ 50% | inhibition of BCRP substrate accumulation (BCRP [2]; [7]): ≤ 50% | OATP2B1 inhibition (OATP2B1 [6]; ref Kulkarni et al.): significant inhibitor | IC50 (OATP2B1 [6]; ref Kulkarni et al., read-out: IC50, OATP2B1): > 50 µM | inhibition of OATP2B1-mediated uptake (OATP2B1 [3]): ≤ 50%

Compound: Cc1cc(C(C)(C)C)c(O)c(C(C)(C)C)c1 [butylated hydroxytoluene]
P-gp inhibition (P-gp [4]): did not inhibit | BCRP inhibition (BCRP [5]; ref Kulkarni et al.): did not inhibit | inhibition of P-gp substrate accumulation (P-gp [1]): None | IC50 (MRP2; CDCF 5 μM, membrane vesicles, n = 3, read-out: IC50 (95% CI), MRP2): 49 µM | inhibition at 50 μM (MRP2; Sf9-derived crude membrane vesicles expressing MRP2, pH 7, probe CDCF 5 μM, food additive 50 μM, n = 1, read-out: inhibition of MRP2 substrate accumulation): ≥ 50% | OATP2B1 inhibition (OATP2B1 [6]; ref Kulkarni et al.): did not inhibit; also recorded: OATP2B1-stimulating effect | inhibition of OATP2B1-mediated uptake (OATP2B1 [3]): OATP2B1-stimulating effect

Compound: OC[C@@H](O)[C@@H](O[C@H]1O[C@H](CO)[C@@H](O)[C@H](O)[C@H]1O)[C@H](O)[C@@H](O)CO [maltitol]
inhibition of P-gp substrate accumulation (P-gp [1]): None

Compound: O=S(=O)([O-])c1ccc(N=Nc2c(O)ccc3cc(S(=O)(=O)[O-])ccc23)cc1.[Na+].[Na+] [sunset yellow FCF]
effect on sulfasalazine permeability (P app) (Caco-2 cells; Caco-2): None of the selected food additives showed any effect | IC50 (BCRP [5]; read-out: IC50 (95% CI), BCRP, previously characterized inhibitors, ref previous studies): 10.6 µM and 14.1 µM | IC50 (OATP2B1 [6]; pH 5.5, previously characterized inhibitors, ref previous studies, read-out: IC50, OATP2B1, pH 5.5): 20.3 µM | Ki (OATP2B1 [6]; previously characterized inhibitors, ref previous studies, read-out: K i, OATP2B1): 68.4 µM

Compound: O=C([O-])C1=NN(c2ccc(S(=O)(=O)[O-])cc2)C(=O)C1N=Nc1ccc(S(=O)(=O)[O-])cc1.[Na+].[Na+].[Na+] (centres unmarked) [tartrazine]
sulfasalazine P app fold change (Caco-2 cells; food additive 200 μM on both sides of the cell monolayer): ≤ 2

Next, values leading:

IC50 (BCRP [2]; Lucifer yellow 50 μM, membrane vesicles, n = 3, read-out: IC50 (95% CI), BCRP): 22.5 µM | inhibition at 50 μM (BCRP [2]; Sf9-derived crude membrane vesicles expressing BCRP, pH 7, probe Lucifer yellow 50 μM, food additive 50 μM, n = 1, read-out: inhibition of BCRP substrate accumulation): ≥ 50%
Compound: CCCCCCCCCCCCOC(=O)c1cc(O)c(O)c(O)c1 [dodecyl gallate]

inhibition of P-gp substrate accumulation (P-gp [1]): None
Compound: OC[C@@H](O)[C@@H](O)CO [erythritol]

inhibition of P-gp substrate accumulation (P-gp [1]): None
Compound: OC[C@@H](O)[C@@H](O[C@@H]1O[C@H](CO)[C@H](O)[C@H](O)[C@H]1O)[C@H](O)[C@@H](O)CO [lactitol]

inhibition of P-gp substrate accumulation (P-gp [1]): None
Compound: OC[C@@H](O)[C@@H](O)[C@H](O)[C@H](O)CO [mannitol]

inhibition of P-gp substrate accumulation (P-gp [1]): None
Compound: CCCOC(=O)c1cc(O)c(O)c(O)c1 [propyl gallate]

inhibition of P-gp substrate accumulation (P-gp [1]): None
Compound: OC[C@@H](O)[C@@H](O)[C@H](O)[C@@H](O)CO [sorbitol]

inhibition of P-gp substrate accumulation (P-gp [1]): None
Compound: OC[C@@H](O)[C@H](O)[C@@H](O)CO [xylitol]
